Structures are written as SMILES. The source made the active and inactive calls. No rule for the calls is given here.

In PubChem BioAssay AID1259408 (Genetic Toxicology Data Bank (GENE-TOX), 2018) one finds mutagenic call and call data, which are given here for 18 compounds.

The data set deals with GENE-TOX genotoxicity assays, various organisms and cells. As to the kind of experiment: GENE-TOX mutagenicity studies. Conditions: for call: Assay Type: In vivo carcinogenicity studies.
The mark [1] stands for this setting: Species/Cell Type: Aspergillus nidulans, Assay Type: Aneuploidy, chromosome aberrations, Assay Code: ASN+, Evaluation Type: Evaluation A (Pre-1980).
Setting [2] is: Species/Cell Type: Saccharomyces cerevisiae, Assay Type: Forward gene mutation, Assay Code: YEF+, Evaluation Type: Evaluation A (Pre-1980).
[3] abbreviates: Species/Cell Type: Nonhuman, Assay Type: Sister-chromatid exchange (SCE) in vitro, Assay Code: SC2+D, Dose Response: With dose response, Evaluation Type: Evaluation B (Post-1980).
[4] abbreviates: Species/Cell Type: Neurospora crassa, Assay Type: Forward gene mutation, Assay Code: NEF+, Evaluation Type: Evaluation A (Pre-1980).
Setting [5] is: Species/Cell Type: Nonhuman, Assay Code: CCG+, Evaluation Type: Evaluation A (Pre-1980).
Setting [6] is: Species/Cell Type: Drosophila melanogaster, Assay Type: Sex-linked recessive lethal gene mutation, Assay Code: SRL+, Evaluation Type: Evaluation A (Pre-1980).

For `NC(Cc1ccc(F)cc1)C(=O)O` (stereo not drawn), the mutagenic call reads like this: under setting [1], “active; positive”; (Species/Cell Type: Aspergillus nidulans, Assay Type: Mitotic recombination, Assay Code: ASG-, Evaluation Type: Evaluation A (Pre-1980)) “inactive; negative”; (Species/Cell Type: Neurospora crassa, Assay Type: Aneuploidy, chromosome aberrations, Assay Code: NEN+, Evaluation Type: Evaluation A (Pre-1980)) “active; positive”; (Species/Cell Type: Saccharomyces cerevisiae, Assay Type: Aneuploidy, chromosome aberrations, Assay Code: YEN+, Evaluation Type: Evaluation A (Pre-1980)) “active; positive”; under setting [2], “active; positive”; (Species/Cell Type: Saccharomyces cerevisiae, Assay Type: Mitotic recombination or gene conversion, Assay Code: YEC+, Evaluation Type: Evaluation A (Pre-1980)) “active; positive”. Besides, under “Species/Cell Type: Saccharomyces cerevisiae, Assay Type: Reverse gene mutation, Assay Code: YER+, Evaluation Type: Evaluation A (Pre-1980)”, the mutagenic call was “active; positive”.
Turning to `COC(=O)NC(=S)Nc1ccccc1NC(=S)NC(=O)OC`, the mutagenic call under setting [1] was “active; positive” and the mutagenic call (Species/Cell Type: Mammalian germ cells, Sex: Male, Assay Type: Chromosome aberrations in vivo, Assay Code: CY9-, Evaluation Type: Evaluation A (Pre-1980)) was “inactive; negative”.
In the case of `C[C@]12C=CC(=O)C=C1CC[C@@H]1[C@@H]2[C@@H](O)C[C@@]2(C)[C@H]1CC[C@]2(O)C(=O)CO`, the mutagenic call is “active; positive” (Species/Cell Type: Human lymphocytes, Assay Type: Sister-chromatid exchange (SCE) in vivo, Assay Code: SCY+, Evaluation Type: Evaluation B (Post-1980)) and “active; positive” (Species/Cell Type: Human, Sex: Male, Assay Type: Sperm morphology, Assay Code: SPH+, Evaluation Type: Evaluation A (Pre-1980)).
Regarding `BrCC(Br)C(Br)CBr` (stereo not drawn), the mutagenic call (Species/Cell Type: Rodents, Sex: Male, Assay Type: Dominant lethal test, Assay Code: DLT-, Evaluation Type: Evaluation A (Pre-1980)) was “inactive; negative”.
Turning to `C=COCC(F)(F)F`, the mutagenic call is “active; positive” (Species/Cell Type: Nonhuman, Assay Type: Sister-chromatid exchange (SCE) in vitro, Assay Code: SC2+, Evaluation Type: Evaluation B (Post-1980)); “active; positive” (Species/Cell Type: Salmonella typhimurium (one or more of the five standard strains: TA98, TA100, TA1535, TA1537, and TA1538), Assay Type: Histidine reverse gene mutation, Ames assay, Assay Code: SAL+*, Activation: With metabolic activation, Evaluation Type: Evaluation A (Pre-1980)); “inactive; negative” (Species/Cell Type: Salmonella typhimurium and Escherichia coli, Assay Type: Forward and reverse gene mutation, body fluid assay, Assay Code: BFB-, Evaluation Type: Evaluation A (Pre-1980)).
For `CC(C)OC(=O)Nc1ccccc1`, for the setting “Species/Cell Type: Vicia faba, Assay Type: Chromosome aberrations, Assay Code: VIC+D, Dose Response: With dose response, Evaluation Type: Evaluation A (Pre-1980)”, the mutagenic call is “active; positive”.
Consider `COc1cc(O)ccc1O`, for which the mutagenic call (Species/Cell Type: Allium cepa, Assay Type: Chromosome aberrations, Assay Code: ALCT, Evaluation Type: Evaluation A (Pre-1980)) is “no conclusion”.
As to `CN(C)c1ccc(-c2ccc(N(C)C)cc2)cc1`, under “Species/Cell Type: Salmonella typhimurium (one or more of the five standard strains: TA98, TA100, TA1535, TA1537, and TA1538), Assay Type: Histidine reverse gene mutation, Ames assay, Assay Code: SAL-, Evaluation Type: Evaluation A (Pre-1980)”, the mutagenic call was “inactive; negative”.
As to `CN(CCC(=O)OC[C@H](N)C(=O)O)N=O`, the mutagenic call is, setting by setting: (Species/Cell Type: Escherichia coli polA (W3110 vs P3478), Assay Type: Rec-assay, DNA effects (bacterial DNA repair), Assay Code: RE2+, Evaluation Type: Evaluation A (Pre-1980)) “active; positive”; (Species/Cell Type: Escherichia coli polA (W3119 vs P3478), Assay Type: Rec-assay, DNA effects (bacterial DNA repair), Assay Code: RE1T, Evaluation Type: Evaluation A (Pre-1980)) “no conclusion”.
For `O=CONC(=O)c1ccc2ccccc2c1`, the mutagenic call under setting [3] is “active; positive”.
For `Nc1nc(NO)c2[nH]cnc2n1`, the mutagenic call by setting is: (Species/Cell Type: Escherichia coli WP2, Assay Type: Tryptophan reverse gene mutation, Assay Code: WP2T, Evaluation Type: Evaluation A (Pre-1980)) “no conclusion”; (Species/Cell Type: Escherichia coli WP2 UVRA, Assay Type: Tryptophan reverse gene mutation, Assay Code: WPUT, Evaluation Type: Evaluation A (Pre-1980)) “no conclusion”; under setting [4], “active; positive”.
As to `S=C1NCCN1`, the mutagenic call (Species/Cell Type: Escherichia coli WP2, Assay Type: Tryptophan reverse gene mutation, Assay Code: WP2-, Evaluation Type: Evaluation A (Pre-1980)) was “inactive; negative”; the mutagenic call (Species/Cell Type: Escherichia coli WP2 UVRA, Assay Type: Tryptophan reverse gene mutation, Assay Code: WPU-, Evaluation Type: Evaluation A (Pre-1980)) is “inactive; negative”; the mutagenic call (Species/Cell Type: Mammalian polychromatic erythrocytes, Assay Type: Micronucleus test, chromosome aberrations, Assay Code: MNTT, Evaluation Type: Evaluation A (Pre-1980)) is listed as “no conclusion”; the mutagenic call (Species/Cell Type: Mouse, Sex: Male, Assay Type: Sperm morphology, Assay Code: SPI-, Evaluation Type: Evaluation A (Pre-1980)) is “inactive; negative”; the mutagenic call (Species/Cell Type: Nonhuman, Assay Type: Sister-chromatid exchange (SCE) in vitro, Assay Code: SC2T, Evaluation Type: Evaluation B (Post-1980)) is “no conclusion”; the mutagenic call (Species/Cell Type: Rodents, Sex: Male, Assay Type: Dominant lethal test, Assay Code: DLT+, Evaluation Type: Evaluation A (Pre-1980)) was “active; positive”. In addition, the mutagenic call was “active; positive” (Species/Cell Type: Salmonella typhimurium (one or more of the five standard strains: TA98, TA100, TA1535, TA1537, and TA1538), Assay Type: Histidine reverse gene mutation, Ames assay, Assay Code: SAL+, Evaluation Type: Evaluation A (Pre-1980)); “active; positive” (Species/Cell Type: Salmonella typhimurium, Assay Type: Forward and reverse gene mutation, host-mediated assay, Assay Code: HMA+, Evaluation Type: Evaluation A (Pre-1980)); “inactive; negative” (Species/Cell Type: Syrian hamster embryo (SA7/SHE) cells, Assay Type: Cell transformation, viral enhanced, Assay Code: CT7-, Evaluation Type: Evaluation A (Pre-1980)); “active; positive” (Species/Cell Type: Tradescantia species, Assay Type: Gene mutation, Assay Code: TRM+D, Dose Response: With dose response, Evaluation Type: Evaluation A (Pre-1980)). For the same compound, the call under setting [5] was “active; positive”.
For `CC(=O)c1ccc(S(=O)(=O)NC(=O)NC2CCCCC2)cc1`, the mutagenic call (Species/Cell Type: Nonhuman, Assay Type: Sister-chromatid exchange (SCE) in vivo, Assay Code: SC3T, Evaluation Type: Evaluation B (Post-1980)) was “no conclusion”.
As to `BrCc1c2ccccc2cc2c1ccc1ccccc12`, the mutagenic call (Species/Cell Type: Chinese hamster lung (V79) cells, Assay Type: Forward gene mutation at the HPRT or ouabain locus, Assay Code: V79+, Evaluation Type: Evaluation A (Pre-1980)) is “active; positive”; the mutagenic call under setting [6] is “active; positive”; the mutagenic call (Species/Cell Type: Escherichia coli WP2, Assay Type: Tryptophan reverse gene mutation, Assay Code: WP2+D, Dose Response: With dose response, Evaluation Type: Evaluation A (Pre-1980)) is “active; positive”; the mutagenic call (Species/Cell Type: Escherichia coli WP2 UVRA, Assay Type: Tryptophan reverse gene mutation, Assay Code: WPU+D, Dose Response: With dose response, Evaluation Type: Evaluation A (Pre-1980)) is “active; positive”; the mutagenic call (Species/Cell Type: Human diploid fibroblasts, Assay Type: Unscheduled DNA synthesis (UDS) in vitro, DNA effects, Assay Code: UDH+, Evaluation Type: Evaluation A (Pre-1980)) was “active; positive”; the mutagenic call under setting [3] was “active; positive”. Also, the mutagenic call (Species/Cell Type: Syrian hamster embryo (SHE) cells, Assay Type: Cell transformation, clonal assay, Assay Code: CTC-, Evaluation Type: Evaluation A (Pre-1980)) is “inactive; negative”. Also, the call under setting [5] is “active; positive”.
Turning to `Nc1ncc2[nH]cnc2n1`, the mutagenic call runs as follows: (Species/Cell Type: Drosophila melanogaster, Assay Type: Sex-linked recessive lethal gene mutation, Assay Code: SRLT, Evaluation Type: Evaluation A (Pre-1980)) “no conclusion”; (Species/Cell Type: Escherichia coli WP2 UVRA, Assay Type: Tryptophan reverse gene mutation, Assay Code: WPU+, Evaluation Type: Evaluation A (Pre-1980)) “active; positive”; (Species/Cell Type: Mouse lymphoma (L5178Y) cells, Assay Type: Forward gene mutation at the thymidine kinase (TK) locus, chromosome aberrations, Assay Code: L51+, Evaluation Type: Evaluation A (Pre-1980)) “active; positive”; (Species/Cell Type: Mouse, Sex: Female, Assay Type: Spot test, gene mutation, Assay Code: MST+, Evaluation Type: Evaluation A (Pre-1980)) “active; positive”; under setting [4], “active; positive”; under setting [2], “active; positive”. Also, under “Species/Cell Type: Nonhuman, Assay Code: CCGT, Evaluation Type: Evaluation A (Pre-1980)”, the call is given as “no conclusion”.
Take `[Cl][Cu][Cl]`: the mutagenic call (Species/Cell Type: Bacillus subtilis (H17 vs M45), Assay Type: Rec-assay, spot test, DNA effects (bacterial DNA repair), Assay Code: REW-, Evaluation Type: Evaluation A (Pre-1980)) was “inactive; negative”.
`CCCCCCCCCCCCCCCCCCOCC(O)COP(=O)([O-])OCC[N+](C)(C)C` (stereo not drawn): the mutagenic call (Species/Cell Type: Mammalian polychromatic erythrocytes, Assay Type: Micronucleus test, chromosome aberrations, Assay Code: MNTT, Evaluation Type: Evaluation B (Post-1980)) is given as “no conclusion”.
Take `CN(C)P(=O)(N1CC1)N1CC1`: the mutagenic call reads like this: under setting [6], “active; positive”; (Species/Cell Type: Human lymphocytes, Assay Type: Sister-chromatid exchange (SCE) in vitro, Assay Code: SCL+D, Dose Response: With dose response, Evaluation Type: Evaluation B (Post-1980)) “active; positive”; (Species/Cell Type: Human, Assay Type: Sister-chromatid exchange (SCE) in vitro, Assay Code: SC1+D, Dose Response: With dose response, Evaluation Type: Evaluation B (Post-1980)) “active; positive”; (Species/Cell Type: Nonhuman, Assay Type: Chromosome aberrations in vitro, Assay Code: CY&+, Evaluation Type: Evaluation A (Pre-1980)) “active; positive”; (Species/Cell Type: Schizosaccharomyces pombe, Assay Type: Reverse gene mutation, Assay Code: YEZ+, Evaluation Type: Evaluation A (Pre-1980)) “active; positive”.
